Reference: patent US8278288B2, “Organosiloxanes containing ester derivatives of ascorbic acid” (Dow Corning Corporation, priority 2007, dated 2012)
Where two headings read alike, the source gives them in different places. Marks after values point to notes of the source that are not given here.

Experiments:
[1] = Solubility in various personal care solvents
Method: A 36 wt % mixture of the referenced sample and listed solvents were prepared in a glass vial. The sealed glass vials containing the mixtures were then placed in a 60° C. water bath and periodically shaken and observed.

[2] = test system: Melanoderm tissue model MEL 300 A; test: Skin whitening effect: melanin concentration in MelanoDerm tissue model; assay type: cell-based, human
Method: This example illustrates cell viability properties and efficacy of skin lightening formulations according to the present invention. In particular, two formulations according to the present invention (containing AUTS as prepared according to Example 4), water (a negative control), 1% kojic acid (Sigma, Wis.) in water (positive control), and ascorbyl tetraisopalmitate in D5 (decamethylcyclopentasiloxane) were assayed and compared for cell viability and skin lightening efficacy (see Table 1) MELANODERM™ cell viability was tested by MTT assay after exposure to test and reference preparations. The assays were carried out using Melanoderm tissue model MEL 300 A cell line (MELANODERM tissue model available from MatTek, Ashland, Mass.), This melanoderm model consists of normal, human-derived epidermal keratinocytes and melanocytes that have been co-cultured to form a multilayer, highly differentiated model of human epidermis. […] (Cell viability with both materials in D5 at 10 and 25 μL dose was >90%). Skin whitening effect was evaluated by measuring melanin concentration (μg/ml) after six applications of each preparation.

[3] = 36 wt % mixture, 60° C. water bath, ** = nearly clear to hazy solution, gels when cooled to room temperature
[4] = 10 μl dose, six applications, in D5 (AUTS 3.2 wt %, VC-IP 6.4%)
[5] = 25 μl dose, six applications, in D5 (AUTS 3.2 wt %, VC-IP 6.4%)

Solubility in A = C12-15 Alkyl Benzoate (FINSOLV TN) [1] | Solubility in B = Cyclopentasiloxane (Dow/Corning 245 Fluid) [1] | Solubility in C = Squalane (Uniqema PRIPURE 3759) [1] | Solubility in D = Tricaprylin (TRIVENT OC-G) [1] | Solubility in Water [1] | Compound | Melanin concentration at Day 10, Average [2, 4] | Melanin concentration at Day 10, Average [2, 5] | further results
 |  |  |  |  | C[Si](C)(C)O[Si](C)(CCCCCCCCCCC(=O)OCC(O)C1OC(=O)C(O)=C1O)O[Si](C)(C)C (centres unmarked) [AUTS, Ascorbyl Undecyl Trisiloxane] | 37.4* μg/ml | 26.6** μg/ml | Solubility in Water ([1]; 36 wt % mixture, 60° C. water bath, * = translucent mixture that thickens to a viscous hazy liquid when cooled): No; Solubility in A = C12-15 Alkyl Benzoate (FINSOLV TN) [1, 3]: Yes**; Solubility in B = Cyclopentasiloxane (Dow/Corning 245 Fluid) [1, 3]: Yes**; Solubility in C = Squalane (Uniqema PRIPURE 3759) [1, 3]: Yes**; Solubility in E = Caprylic/Capric Triglyceride [1, 3]: Yes**
 |  |  |  |  | O=c1cc(CO)occ1O [Kojic Acid, kojic acid] |  |  | Melanin concentration at Day 10, Average ([2]; 25 μL dose, 1 wt % in water, six applications (positive control)): 41.9 µg/mL
 |  |  |  |  | CCCCCCCCC(CCCCCC)C(=O)OC[C@H](OC(=O)C(CCCCCC)CCCCCCCC)[C@H]1OC(=O)C(OC(=O)C(CCCCCC)CCCCCCCC)=C1OC(=O)C(CCCCCC)CCCCCCCC (some centres unmarked) [VC-IP, ascorbyl tetraisopalmitate] | 57.8* μg/ml | 55.2** μg/ml | 
Yes | No | No | Yes | No | Bis-Ascorbyl Undecyl Polydimethylsiloxane [Comparative sample #2] |  |  | 
No | No | No | No | Yes* | Bis-Ascorbyl Undecyl Tetramethyldisiloxane [Comparative sample #1] |  |  | 
